Values quoted from earlier work as cited in patent US20240293600A1, “COMPOSITIONS, METHODS, AND DEVICES FOR SUSTAINED RELEASE OF AN AGENT” (Board of Supervisors of Louisiana State University and …, priority 2021, published 2024).

## O=c1c(O)c(-c2ccc(O)c(O)c2)oc2cc(O)cc(O)c12 [Quercetin, 2-(3,4-dihydroxyphenyl)-3,5,7-trihydroxy-4H-1-benzopyran-4-one]
  solubility in water: practically insoluble in water
